From ChEMBL document CHEMBL4418495, “Entpd5 inhibitors” (2012) come the findings set out here.

Calls of active or inactive are those of the source. Unless noted, the calls are words filed in the database; no cut-off is given here.

Assay [1] has as its target T1, Nucleoside diphosphate phosphatase ENTPD5 (Homo sapiens) (UniProt O75356).
T1 sequence (whole entry): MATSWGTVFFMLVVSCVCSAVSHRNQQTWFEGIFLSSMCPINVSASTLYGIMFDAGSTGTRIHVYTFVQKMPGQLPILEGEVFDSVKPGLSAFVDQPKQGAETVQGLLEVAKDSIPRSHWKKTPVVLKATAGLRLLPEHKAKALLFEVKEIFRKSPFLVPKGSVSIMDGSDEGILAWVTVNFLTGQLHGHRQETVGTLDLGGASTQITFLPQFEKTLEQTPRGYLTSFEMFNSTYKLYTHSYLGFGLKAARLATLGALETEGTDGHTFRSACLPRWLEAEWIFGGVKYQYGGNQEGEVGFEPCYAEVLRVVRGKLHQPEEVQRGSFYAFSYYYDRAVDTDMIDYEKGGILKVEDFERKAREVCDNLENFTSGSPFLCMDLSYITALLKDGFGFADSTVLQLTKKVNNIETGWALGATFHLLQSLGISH
Put plainly: Inhibition of human recombinant ENTPD5 expressed in insect cells assessed as reduction in UDP hydrolysis at 1 uM incubated for 1 hr in presence of UMP, GTP and ATP by Escherichia coli UMP kinase pyrH catalyzed UMP phosphorylation coupled luciferase assay.

Assay [2] concerns the target T1, Nucleoside diphosphate phosphatase ENTPD5 (Homo sapiens). In words: Inhibition of human recombinant ENTPD5 expressed in insect cells assessed as reduction in reduction in UDP hydrolysis by measuring inorganic phosphate release incubated for 1 hr by malachite green based assay.
Assay [3] concerns the target T2, Ectonucleoside triphosphate diphosphohydrolase 5 (Mus musculus) (UniProt Q9WUZ9).
T2 sequence (whole entry): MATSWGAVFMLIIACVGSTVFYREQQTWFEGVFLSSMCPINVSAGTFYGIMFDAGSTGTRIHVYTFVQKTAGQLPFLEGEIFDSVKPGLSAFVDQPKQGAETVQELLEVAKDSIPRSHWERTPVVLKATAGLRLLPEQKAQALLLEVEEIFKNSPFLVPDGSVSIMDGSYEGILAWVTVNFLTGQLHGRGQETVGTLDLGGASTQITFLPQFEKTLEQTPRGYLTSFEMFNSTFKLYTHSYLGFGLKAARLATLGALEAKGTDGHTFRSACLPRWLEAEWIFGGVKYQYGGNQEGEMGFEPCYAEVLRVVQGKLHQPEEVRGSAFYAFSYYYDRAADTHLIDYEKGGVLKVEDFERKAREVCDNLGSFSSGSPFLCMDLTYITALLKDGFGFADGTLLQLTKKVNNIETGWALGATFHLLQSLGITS
In words: Inhibition of ENTPD5 in PTEN knockout mouse MEF cells assessed as induction of ER stress by measuring increase in GRP78/BiP expression at 30 uM incubated for 24 hrs by Western blotting analysis. Format: cell-based. (Immunoblotting shows a protein as a band on a membrane.)

The test system of assay [4] is LNCaP. In words: Antitumor activity against human LNCAP cells xenografted in mouse assessed as induction of tumor shrinkage at 1 to 100 mg/kg, ip dosed every other day and measured after 6 weeks by microscopy. The assay is classed as functional, organism-based. (In general: In xenograft studies the graft and the host belong to different species.)
The target of assay [5] is T3, Uridylate kinase (Escherichia coli (strain K12)) (UniProt P0A7E9).
T3 sequence (whole entry): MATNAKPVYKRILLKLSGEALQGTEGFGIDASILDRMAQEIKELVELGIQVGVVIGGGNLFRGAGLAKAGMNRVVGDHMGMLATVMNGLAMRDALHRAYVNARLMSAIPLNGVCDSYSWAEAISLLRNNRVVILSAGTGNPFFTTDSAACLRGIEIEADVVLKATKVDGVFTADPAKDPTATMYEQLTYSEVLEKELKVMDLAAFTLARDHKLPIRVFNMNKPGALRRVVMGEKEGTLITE
Put plainly: Inhibition of recombinant Escherichia coli UMP kinase pyrH catalyzed UMP phosphorylation in presence of GTP and ATP incubated for 1 hr by luminescence based assay.

Assay [6] concerns the target T1, Nucleoside diphosphate phosphatase ENTPD5 (Homo sapiens). In words: Inhibition of human recombinant ENTPD5 expressed in insect cells assessed as reduction in UDP hydrolysis up to 10 uM incubated for 1 hr in presence of UMP, GTP and ATP by Escherichia coli UMP kinase pyrH catalyzed UMP phosphorylation coupled luciferase assay.
Assay [7] relates to LNCaP. In words: Antitumor activity against human LNCAP cells xenografted in mouse assessed as reduction in cells left in matrigels at 1 to 100 mg/kg, ip dosed every other day and measured after 6 weeks by hematoxylin and eosin staining based microscopy. The assay is classed as functional, organism-based.

Turning to `Cc1ccc2nc(Nc3nc(O)c(CCC(C)C)c(=O)[nH]3)nc(C)c2c1`, the inhibition result in assay [1], in assay [2] and in assay [3] was “Active” in each case. Moreover, the result in the assay on LNCaP [4] and with LNCaP [7] was Active. Further, the inhibition entry in assay [5] is “inactive”. In addition, the inhibition entry in assay [6] was “Dose-dependent effect”.

Take `O=C1NC(=S)N(c2ccccc2F)C(=O)/C1=C/c1cccn1-c1ccc(Br)cc1`: the inhibition result in assay [1], in assay [2] and in assay [3] was “Active” each time. Moreover, the outcome in the assay on LNCaP [4] and in the assay on LNCaP [7] was Active. In addition, the inhibition result in assay [5] was “inactive”. Further, the inhibition entry in assay [6] is “Dose-dependent effect”.

For `O=C1/C(=C/c2ccc(O)cc2O)CCC/C1=C\c1ccc(O)cc1O`, the inhibition result in assay [1], in assay [2] and in assay [3] was “Active” in each case. Also, the outcome in the assay with LNCaP [4] and with LNCaP [7] was Active. The inhibition entry in assay [5] is “inactive”. For the same molecule, the inhibition result in assay [6] was “Dose-dependent effect”.

`Cc1cc(I)cc2c1NC(c1ccc([N+](=O)[O-])cc1)C1CC=CC21` (stereo unspecified): the inhibition result in assay [1], in assay [2] and in assay [3] was “Active” throughout. In addition, the result with LNCaP [4] and in the assay on LNCaP [7] was Active. Moreover, the inhibition entry in assay [5] was “inactive”. For the same molecule, the inhibition result in assay [6] was “Dose-dependent effect”.

For the molecule `O=C1NC(=S)N(c2ccccc2)C(=O)/C1=C/c1ccc(-c2cc([N+](=O)[O-])ccc2Cl)o1`, the inhibition entry in assay [1], in assay [2] and in assay [3] was “Active” in each case. The result in the assay with LNCaP [4] and in the assay with LNCaP [7] was Active. In assay [5], the inhibition result is “inactive”. The inhibition entry in assay [6] was “Dose-dependent effect”.

Consider `Cc1ccc(-c2ccc(C=C3C(=O)NC(=S)NC3=O)o2)c(Br)c1`, for which the inhibition entry in assay [1], in assay [2] and in assay [3] was “Active” in each case. Further, the outcome in the assay with LNCaP [4] and with LNCaP [7] was Active. In addition, the inhibition entry in assay [5] was “inactive”. Moreover, the inhibition result in assay [6] was “Dose-dependent effect”.

For `O=C1/C(=C/c2ccco2)C(=O)N(c2ccc(Br)cc2)C(=S)N1c1ccccc1`, the inhibition result in assay [1], in assay [2] and in assay [3] was “Active” throughout. The result with LNCaP [4] and in the assay with LNCaP [7] was Active. For the same molecule, in assay [5], the inhibition result is “inactive”. In addition, in assay [6], the inhibition entry was “Dose-dependent effect”.

Turning to `CCOC(=O)c1ccc(-c2ccc(/C=C3/C(=O)NC(=O)N(Cc4ccco4)C3=O)o2)cc1`, the inhibition entry in assay [1], in assay [2] and in assay [3] was “Active” each time. Moreover, the outcome in the assay on LNCaP [4] and with LNCaP [7] was Active. In addition, the inhibition result in assay [5] is “inactive”. Besides, the inhibition result in assay [6] is “Dose-dependent effect”.

Regarding `S=C(Nc1ccc2nc(-c3ccco3)c(-c3ccco3)nc2c1)N1CCCCCC1`, the inhibition result in assay [1], in assay [2] and in assay [3] was “Active” in each case. Moreover, the outcome in the assay on LNCaP [4] and with LNCaP [7] was Active. Also, the inhibition entry in assay [5] is “inactive”. The inhibition result in assay [6] was “Dose-dependent effect”.

Turning to `O=C1NC(=S)NC(=O)C1=Cc1ccc(-c2cc(Cl)ccc2Cl)o1`, the inhibition entry in assay [1], in assay [2] and in assay [3] was “Active” each time. Moreover, the outcome with LNCaP [4] and with LNCaP [7] was Active. In addition, in assay [5], the inhibition entry was “inactive”. For the same molecule, in assay [6], the inhibition result is “Dose-dependent effect”.

Consider `O=C1NC(=S)NC(=O)C1=Cc1ccc(-c2ccc(Br)cc2)o1`, for which the inhibition result in assay [1], in assay [2] and in assay [3] was “Active” each time. In addition, the outcome in the assay on LNCaP [4] and in the assay on LNCaP [7] was Active. Besides, the inhibition result in assay [5] was “inactive”. The inhibition entry in assay [6] was “Dose-dependent effect”.

As for `O=C1NC(=S)N(c2ccccc2)C(=O)/C1=C/c1cccn1-c1ccc(Cl)cc1`, the inhibition entry in assay [1], in assay [2] and in assay [3] was “Active” in each case. Further, the outcome in the assay on LNCaP [4] and with LNCaP [7] was Active. Moreover, the inhibition result in assay [5] is “inactive”. The inhibition result in assay [6] is “Dose-dependent effect”.

In the case of `O=C1NC(=O)N(c2ccc(F)cc2)C(=O)/C1=C/c1ccc(Sc2ccc(Cl)cc2)o1`, the inhibition entry in assay [1], in assay [2] and in assay [3] was “Active” throughout. For the same molecule, the outcome in the assay on LNCaP [4] and in the assay on LNCaP [7] was Active. In assay [5], the inhibition entry was “inactive”. The inhibition entry in assay [6] was “Dose-dependent effect”.

Take `O=C1NC(=S)N(c2ccccc2)C(=O)/C1=C/c1ccc(-c2ccc(F)cc2)o1`: the inhibition entry in assay [1], in assay [2] and in assay [3] was “Active” each time. The outcome in the assay on LNCaP [4] and with LNCaP [7] was Active. For the same molecule, the inhibition result in assay [5] was “inactive”. Also, the inhibition result in assay [6] was “Dose-dependent effect”.

Take `S=C(Nc1ccc2nc(-c3ccco3)c(-c3ccco3)nc2c1)N1CCCC1`: the inhibition result in assay [1], in assay [2] and in assay [3] was “Active” each time. Besides, the result in the assay on LNCaP [4] and in the assay with LNCaP [7] was Active. Moreover, in assay [5], the inhibition entry was “inactive”. The inhibition result in assay [6] is “Dose-dependent effect”.

For the molecule `O=C1NC(=O)N(c2ccc(I)cc2)C(=O)/C1=C/c1cnn(-c2ccccc2)c1`, the inhibition result in assay [1], in assay [2] and in assay [3] was “Active” throughout. The outcome in the assay on LNCaP [4] and in the assay with LNCaP [7] was Active. The inhibition entry in assay [5] is “inactive”. In addition, in assay [6], the inhibition entry was “Dose-dependent effect”.

Consider `O=C1/C(=C/c2ccc(O)c([N+](=O)[O-])c2)SC(=S)N1c1cccc(C(F)(F)F)c1`, for which the inhibition entry in assay [1], in assay [2] and in assay [3] was “Active” throughout. The result with LNCaP [4] and in the assay on LNCaP [7] was Active. Besides, the inhibition entry in assay [5] is “inactive”. Further, in assay [6], the inhibition result is “Dose-dependent effect”.

In the case of `COc1ccc(/C=C2\SC(=S)N(c3ccc([N+](=O)[O-])cc3)C2=O)cc1O`, the inhibition entry in assay [1], in assay [2] and in assay [3] was “Active” in each case. Besides, the result in the assay with LNCaP [4] and in the assay on LNCaP [7] was Active. Also, in assay [5], the inhibition result was “inactive”. Besides, the inhibition entry in assay [6] was “Dose-dependent effect”.
